Results from the supplement of paper PMC10307832.

Experiments:
Assay in all cases: relative viability (nuclei count vs DMSO), 5 days (fraction); higher = more cells survive
[1] = compound: CC(O)(CS(=O)(=O)c1ccc(F)cc1)C(=O)Nc1ccc(C#N)c(C(F)(F)F)c1 [Bicalutamide] + CC(=O)Nc1cccc(-n2c(=O)n(C3CC3)c(=O)c3c(Nc4ccc(I)cc4F)n(C)c(=O)c(C)c32)c1 [Trametinib] (partner 0.02 µM)
Summary of the method: (§1)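 Relative viability is defined as nuclei in treated wells over nuclei in vehicle wells. Duplicate plates were run and medians reported. Lung cancer cell lines in 1536-well plates were dosed by pin tool one day after seeding, with one drug or with a fixed anchor-drug dose plus five library-drug doses (not always all listed) in √10 steps, and nuclei were counted after 5 days.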

Bicalutamide + Foretinib = compound: CC(O)(CS(=O)(=O)c1ccc(F)cc1)C(=O)Nc1ccc(C#N)c(C(F)(F)F)c1 [Bicalutamide] + COc1cc2c(Oc3ccc(NC(=O)C4(C(=O)Nc5ccc(F)cc5)CC4)cc3F)ccnc2cc1OCCCN1CCOCC1 [Foretinib] (partner 0.25 µM)
Summary of the method: as §1

[2] = compound: C(C(=O)C(=O)O)Br [Bromopyruvate] + Cc1nc(Nc2ncc(C(=O)Nc3c(C)cccc3Cl)s2)cc(N2CCN(CCO)CC2)n1 [Dasatinib] (partner 0.075 µM)
Summary of the method: as §1

[3] = compound: CC(O)(CS(=O)(=O)c1ccc(F)cc1)C(=O)Nc1ccc(C#N)c(C(F)(F)F)c1 [Bicalutamide] + CS(=O)(=O)N1CCN(Cc2cc3nc(-c4cccc5[nH]ncc45)nc(N4CCOCC4)c3s2)CC1 [Pictilisib] (partner 1 µM)
Summary of the method: as §1

Cell Line | relative viability ([1]; first compound 0.08 µM) | relative viability ([1]; first compound 0.253 µM) | relative viability ([1]; first compound 0.8 µM) | relative viability ([1]; first compound 2.53 µM) | relative viability (Bicalutamide + Foretinib; first compound 0.08 µM) | relative viability (Bicalutamide + Foretinib; first compound 0.253 µM) | relative viability (Bicalutamide + Foretinib; first compound 0.8 µM) | relative viability (Bicalutamide + Foretinib; first compound 2.53 µM) | relative viability ([2]; first compound 1 µM) | relative viability ([2]; first compound 3.162 µM) | relative viability ([2]; first compound 10 µM) | relative viability ([2]; first compound 31.62 µM) | relative viability ([2]; first compound 100 µM) | relative viability ([3]; first compound 0.08 µM) | relative viability ([3]; first compound 0.253 µM) | relative viability ([3]; first compound 0.8 µM) | relative viability ([3]; first compound 2.53 µM)
NCI-H460 | 0.139 | 0.129 | 0.128 | 0.129 | 1 | 1 | 1.17 | 0.963 | 0.523 | 0.509 | 0.502 | 0.539 | 0.494 | 0.343 | 0.335 | 0.478 | 0.356
LOU-NH91 | 0.755 | 0.724 | 0.82 | 0.791 | 0.969 | 0.79 | 0.963 | 0.96 | 0.592 | 0.535 | 0.61 | 0.58 | 0.558 | 0.537 | 0.471 | 0.549 | 0.491
NCI-H322M | 0.537 | 0.541 | 0.502 | 0.503 | 1.01 | 0.851 | 1.16 | 1.06 | 0.253 | 0.258 | 0.248 | 0.235 | 0.259 | 0.469 | 0.53 | 0.573 | 0.55
NCI-H520 | 0.725 | 0.363 | 0.939 | 0.432 | 0.856 | 0.708 | 0.773 | 0.621 | 0.216 | 0.222 | 0.154 | 0.251 | 0.241 | 0.516 | 0.254 | 0.281 | 0.335
NCI-H661 | 0.631 | 0.534 | 0.621 | 0.558 | 1.02 | 1.04 | 1.04 | 0.958 | 0.785 | 1.02 | 0.929 | 0.943 | 1.05 | 0.433 |  | 0.494 | 0.407
NCI-H727 | 0.38 | 0.381 | 0.414 | 0.399 | 1 | 0.689 | 1.23 | 0.914 | 0.474 | 0.301 | 0.29 | 0.401 | 0.314 | 0.415 | 0.456 | 0.377 | 0.423
NCI-H1793 | 0.382 |  | 0.448 | 0.439 | 0.796 | 0.553 | 0.983 | 0.792 | 0.385 | 0.402 | 0.415 | 0.407 | 0.386 | 0.285 | 0.208 | 0.415 | 0.281
NCI-H1734 | 0.709 | 0.531 | 0.681 | 0.663 | 0.925 | 0.731 | 1 | 0.809 | 0.462 | 0.436 | 0.548 | 0.44 | 0.365 | 0.438 | 0.388 | 0.593 | 0.431
LXF-289 | 0.667 | 0.636 | 0.734 | 0.656 | 0.955 | 0.91 | 0.939 | 0.985 | 0.278 | 0.214 | 0.262 | 0.27 | 0.183 | 0.759 | 0.728 | 0.855 | 0.757
H3255 | 0.666 | 0.567 | 0.717 | 0.569 | 0.901 | 0.827 |  | 0.84 | 0.422 | 0.361 | 0.347 | 0.344 | 0.488 | 0.521 | 0.376 | 0.48 | 0.462
201T | 0.703 | 0.725 | 0.7 | 0.738 | 1.01 | 1.02 | 0.892 | 1.09 | 0.585 | 0.575 | 0.613 | 0.574 | 0.657 | 0.685 | 0.658 | 0.742 | 0.674
NCI-H2228 | 0.39 | 0.54 | 0.616 | 0.34 | 0.933 | 0.843 | 1 | 1.02 | 0.464 | 0.532 | 0.52 | 0.455 | 0.633 | 0.347 | 0.341 | 0.425 | 0.409
HOP-62 | 0.396 | 0.403 | 0.427 | 0.354 | 1.11 | 1.13 | 1.29 | 1.26 | 0.643 | 0.68 | 0.791 | 0.609 | 0.709 | 0.971 | 0.806 | 0.998 | 0.614
CAL-12T | 0.37 | 0.343 | 0.398 | 0.264 | 1.11 | 1.04 | 1.32 | 1.13 | 0.488 | 0.341 | 0.409 | 0.539 | 0.392 | 0.394 | 0.415 | 0.454 | 0.345
NCI-H596 | 0.76 | 0.765 | 0.994 | 0.952 | 0.986 | 0.87 | 0.976 | 0.946 | 0.6 | 0.527 | 0.676 | 0.747 | 0.685 | 0.409 | 0.623 | 0.404 | 0.475
NCI-H1755 | 0.738 | 0.774 | 0.776 | 0.751 | 0.895 | 0.883 | 0.96 | 0.853 | 0.439 | 0.46 | 0.469 | 0.464 | 0.475 | 0.476 | 0.378 | 0.523 | 0.279
NCI-H2085 | 0.513 | 0.554 | 0.535 | 0.404 | 1.02 | 1.1 | 0.878 | 0.753 | 0.246 | 0.243 | 0.234 | 0.263 | 0.284 | 0.445 | 0.461 | 0.442 | 0.39
NCI-H2023 | 0.547 | 0.52 | 0.556 | 0.382 | 0.957 | 0.506 | 0.845 | 0.774 | 0.398 | 0.566 | 0.661 | 0.573 | 0.562 | 0.279 | 0.21 | 0.253 | 0.178
